Measured values as given in US4087461A, “Anti-androgenic steroids” (The Johns Hopkins University, priority 1977, dated 1978).

How the values were obtained:
immature uterus = assay: study of estrogenic activity (uterine weight of immature mice); conditions: 100 μg total dose over three days, sc
Procedure: The animals were housed in a temperature controlled room under a constant lighting schedule and maintained on a diet of Charles River Rat Formula and water ad libitum. The diet of the hypophy-sectomized animals was supplemented with organges.
On the fourth day the uteri were removed and weighed.
Thus, immature female mice received estryne at doses up to a maximum of 100 μg total dose over three days, and the wet weight of the uteri were determined.

[1] = system: competition with testosterone at the target tissue; assay: study in castrate rats receiving testosterone propionate: prostatic weight; format: in vivo, male Sprague-Dawley rats (castrated); conditions: estryne 12mg/kg i.p. and testosterone propionate 0.3mg daily for seven days; castrated 10 days prior
Procedure: To determine if the estryne competes with testosterone at the target tissue rats were orchiectomized under ether anesthesia via the scrotal route 10 days prior to treatment. Testosterone propionate 0.3 mg (0.2 ml sesame oil) was administered daily for 7 days subcutaneously. Estryne 12 mg/kg (0.2 ml propylene glycol) was given daily for 7 days interperitioneally. Control groups received either testosterone propionate (0.3 mg) or carrier oil daily for 7 days. The animals were sacrificed on the eighth day and the organs were weighed.
Animals castrated 10 days prior to treatment received both estryne (12mg/kg weight) and testosterone propionate (0.3mg) daily for seven days.

[2] = system: androgen biosynthesis stimulated by human chorionic gonadotropin; assay: study in hypophysectomized rats stimulated with human chorionic gonadotropin: ventral prostate weight; format: in vivo, hypophysectomized male Sprague-Dawley rats
Procedure: In order to assess the action of the estryne in the presence of exogenous stimulation of androgen synthesis, hypophysectomized male rats received estryne 3.0 mg (0.2 ml sesame oil) sc and/or human chorionic gonadotropin 2 units and 4 units (0.9% saline) sc daily for 7 days. Sacrifice and weighing of the organs was performed on the eighth day.
The wet weight of the ventral prostate was decreased (20-25%) in hypophysectomized animal receiving estryne (12mg/kg body weight) and HGG (2 units) as compared to controls receiving just HGG (2 units).

C[C@]12CC[C@@H]3C(=O)CCC(=O)CC#CC[C@H]3[C@@H]1CCC2=O [Compound 1, 5,10-secoestr-5-yne-3,10,17-trione]
stimulation of the immature uterus (immature uterus): no stimulation of the immature uterus
depression of prostatic weight [1]: No significant depression of prostatic weight
decrease in wet weight of the ventral prostate ([2]; estryne 12mg/kg body weight and HCG 2 units, vs controls receiving HCG 2 units only, 7 days): 20-25%
effect on ventral prostate weight at higher doses of HCG ([2]; higher doses of HCG, in words): less pronounced
